Values of other authors as cited in patent US20170173059A1, “Novel Combination of Naturally Occurring Compounds to Assist With Suspected Mycobacterial Infections Related to Autoimmune Conditions” (priority 2015, published 2017).
“Also recorded” adds a separate entry of the source. Where two headings read alike, the source gives them in different places.

What was measured:
[1] = system: Mycobacterium avium subspecies paratuberculosis (MAP); conditions: selected strains of MAP
[2] = material data safety sheets / classification
MAP = conditions: bovine and human MAP strains, radiometric culture
[3] = system: patients with inflammatory bowel disease; conditions: Boswellia group versus sulfasalazine control group
[4] = system: multidrug resistance pumps (MDR pumps)
M. avium = conditions: radiometric culture
M.Tb = conditions: radiometric culture
5-lipoxygenase = target: T1, 5-lipoxygenase (Homo sapiens, UniProt P09917)
T1 sequence (P09917 1-674): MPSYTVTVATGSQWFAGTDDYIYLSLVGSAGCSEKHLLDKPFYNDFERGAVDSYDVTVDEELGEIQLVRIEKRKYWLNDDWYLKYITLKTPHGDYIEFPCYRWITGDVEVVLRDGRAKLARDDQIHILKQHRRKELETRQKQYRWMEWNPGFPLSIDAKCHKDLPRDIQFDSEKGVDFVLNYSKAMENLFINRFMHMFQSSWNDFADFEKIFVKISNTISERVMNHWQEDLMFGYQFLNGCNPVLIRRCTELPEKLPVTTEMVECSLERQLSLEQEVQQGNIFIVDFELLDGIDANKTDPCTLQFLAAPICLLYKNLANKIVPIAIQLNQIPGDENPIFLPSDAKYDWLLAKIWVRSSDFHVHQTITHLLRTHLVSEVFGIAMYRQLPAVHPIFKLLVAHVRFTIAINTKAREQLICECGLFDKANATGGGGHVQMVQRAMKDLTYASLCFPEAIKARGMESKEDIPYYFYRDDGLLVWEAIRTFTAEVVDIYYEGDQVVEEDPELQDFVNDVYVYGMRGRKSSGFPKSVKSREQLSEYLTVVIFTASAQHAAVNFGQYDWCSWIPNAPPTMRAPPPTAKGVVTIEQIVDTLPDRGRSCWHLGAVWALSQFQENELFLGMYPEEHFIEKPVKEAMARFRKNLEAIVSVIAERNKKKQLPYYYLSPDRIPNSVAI

**Q.** Which results are given for `O=C/C=C/c1ccccc1` [Trans-cinnamaldehyde]?
**A.** inhibition of MAP in vitro [1]: shown to inhibit; safety listing (GRAS) [2]: GRAS

**Q.** For `CC[C@@]1([C@@H]2O[C@@H]([C@H]3O[C@@](O)(CO)[C@H](C)C[C@@H]3C)C[C@@H]2C)CC[C@H]([C@]2(C)CC[C@]3(C[C@H](O)[C@@H](C)[C@@H]([C@@H](C)[C@@H](OC)[C@H](C)C(=O)O)O3)O2)O1` [Monensin], which “inhibition of MAP strains in vitro” value (MAP) is on record?
**A.** The value was “displayed inhibition of MAP”.

**Q.** Which “inhibition of MAP strains in vitro” value (MAP) does the source give for `CC(=O)OC/C=C(C)/C=C/C=C(C)/C=C/C1=C(C)CCCC1(C)C` [retinyl acetate] here?
**A.** Its value is “inhibitory effects; also recorded: highest inhibition of the group”.

**Q.** Which “action against the family of mycobacteria” value (family of mycobacteria) does the source give for `Cc1ncc([N+](=O)[O-])n1CCO` [Metronidazole] here?
**A.** The value was “little to no action”.

**Q.** With `O=C(O)c1cc(/N=N/c2ccc(S(=O)(=O)Nc3ccccn3)cc2)ccc1O` [sulfasalazine] as the compound, how does the remission rates [3] read?
**A.** The remission rates was 75%.

**Q.** Which “inhibition of MAP strains in vitro” value (MAP) does the source give for `CC1=C(/C=C/C(C)=C/C=C/C(C)=C/C=C/C=C(C)/C=C/C=C(C)/C=C/C2=C(C)CCCC2(C)C)C(C)(C)CCC1` [β carotene] here?
**A.** Its value is “inhibitory effects”.

**Q.** Which “multi-drug resistance pump inhibition” value [4] does the source give for `COc1cc(C2Oc3cc(-c4cc(=O)c5c(O)cc(O)cc5o4)ccc3OC2CO)cc(OC)c1O` (stereo not drawn) [Example 5-MHC, 5-methoxyhydnocarpin] here?
**A.** The value was “multi-drug resistance pump inhibitor”.

**Q.** For `CC1=C(/C=C/C(C)=C/C=C/C(C)=C/CO)C(C)(C)CCC1` [Retinol, (2E,4E,6E,8E)-3,7-Dimethyl-9-(2,6,6-trimethyl-cyclohex-1-enyl)-nona-2,4,6,8-tetraen-1-ol], which “inhibition of MAP strains in vitro” value (MAP) is on record?
**A.** Its value is “strong inhibitory effect”.

**Q.** And the “inhibition of M. avium” value (M. avium)?
**A.** The value was “strong inhibitory effect”.

**Q.** And the “inhibition of M.Tb” value (M.Tb)?
**A.** The value was “strong inhibitory effect”.

**Q.** With `C=C1CC[C@H](O)C/C1=C/C=C1\CCC[C@]2(C)[C@@H]([C@H](C)CCCC(C)C)CC[C@@H]12` [Vitamin D3, cholecalciferol] as the compound, how does the “inhibition of MAP strains in vitro” value (MAP) read?
**A.** The value was “shown inhibition”.

**Q.** What about the “anti-neoplastic activity in colon tissue” value (colon tissue) of the same compound?
**A.** The value was “specific anti-neoplastic activity”.

**Q.** And the “anti-neoplastic activity in colon tissue” value (colon tissue; listed as D3)?
**A.** The value was “protect against neoplastic development”.

**Q.** Which “effect on 5-lipoxygenase” value (5-lipoxygenase) does the source give for `CC(=O)O[C@@H]1CC[C@@]2(C)[C@@H](CC[C@]3(C)[C@@H]2C(=O)C=C2[C@@H]4[C@@H](C)[C@H](C)CC[C@]4(C)CC[C@]23C)[C@@]1(C)C(=O)O` [acetyl-11-keto-beta-boswellic acid] here?
**A.** Its value is “influenced”.

**Q.** Which “inhibition of MAP strains in vitro” value (MAP) does the source give for `CC1=C(/C=C/C(C)=C/C=C/C(C)=C\C(=O)O)C(C)(C)CCC1` [13 cis-retinoic acid] here?
**A.** The value was “inhibitory effects”.

**Q.** For `CC1(C)S[C@@H]2[C@H](NC(=O)[C@H](N)c3ccc(O)cc3)C(=O)N2[C@H]1C(=O)O` [Amoxicillin], which “action against the family of mycobacteria” value (family of mycobacteria) is on record?
**A.** The value was “little to no action”.

**Q.** Which results are given for Vitamin A?
**A.** inhibition of MAP strains in vitro (MAP): in vitro inhibition; inhibition of MAP strains in vitro (MAP; listed as vitamin A): found to inhibit

**Q.** With `O=CC=Cc1ccccc1` [Cinnamaldehyde] as the compound, how does the “inhibition of MAP in vitro” value [1] read?
**A.** Its value is “shown to inhibit”.

**Q.** What about the “safety listing (GRAS)” value [2] of the same compound?
**A.** The value was “GRAS”.
